Assay results taken from patent publication US10292963B2, “Suppression and treatment of viruses” (priority 2013, dated 2019).

Assay: Additional benefits observed in people taking betaine
Assay type: in vivo, human
From the text: While the main benefit of a person or pet taking vitamin C and betaine in combination is the prevention/suppression of tumors, as mentioned before, additional benefits can be obtained depending upon the levels taken. Betaine is known to improve cardiovascular health, and can benefit people with fatty deposits in the liver. […] After only a few weeks of taking the betaine, cholesterol levels are reduced and the ability to lose weight is improved.

[1] = after only a few weeks of taking the betaine

Question: What does the source list for `C[N+](C)(C)CC(=O)[O-]` [betaine, trimethylglycine]?
Answer: tendency to be light headed on getting up after prolonged squatting or kneeling (after a few doses at about one and a half to about three grams per day, especially older people): considerably lessened; ability to lose weight [1]: improved; cholesterol levels [1]: reduced
